Patent US4727080A, “1-substituted derivatives of 6-fluoro-7-(pyrrol-1-yl)-1,4-dihydro-4-oxoquinoline-3-carboxylic acid, their preparation and their application as drugs” (Provesan S.A., priority 1984, dated 1988)
≈ marks a conversion by molar mass, not a printed value.

How the values were obtained:
Escherichia coli R-1513 = test: "In vitro" MIC, Escherichia coli R-1513; type: cell-based; conditions: R1513; Escherichia coli R-1513; dextrose agar, 37° C., 20 hours; read-out: "In vitro" MIC
Description: (§1) Antimicrobial pharmacological activity (G. L. Daquet and Y. A. Chabbect, Techniques en bacteriologie (Techniques in bacteriology), vol. 3, Flammarion Medecine-Sciences, Paris, 1972, and W. B. Hugo and A. D. Rusell, Pharmaceutical Microbiology, Blackwell Scientific Publications, London (1977).
(§2) A streak culture of each of the microorganisms is formed in tubes of antibiotics agar no. 1 and incubated for 20 hours at 37° C. A culture loop is then taken and a culture is formed in a tryptone-soya broth and incubated for 20 hours at 37° C. The resulting culture is diluted to 1/4 with Ringer's physiological solution to give a standardized suspension of 10^5 ufc/ml for each organism.
(§3) Starting from a solution of 1000 μg/ml in 0.1N NaOH, each product is diluted successively in dextrose agar (melted beforehand and kept at 50° C.) to give the following concentrations: 64-32-16-8-4-2-1-0.5-0.25-0.125 μg of derivative/ml of medium.
(§4) After this, each concentration of each product is divided up into Petri dishes of 10 cm diameter at a rate of 10 ml of medium per dish and using as many dishes as there are microorganisms to be tested.
(§5) Once the medium has cooled, the dishes are treated with the inoculations at a rate of 0.4 ml of inoculation per dish. They are spread out with a Drigalski loop and the supernatant is collected. The inoculated dishes are incubated at 37° C. for 20 hours.

[1] = test system: Serratia marcescens ATTC 13880; test: "In vitro" MIC, Serratia marcescens; type: cell-based; conditions: ATTC13880; Serratia marcescens ATTC 13880; dextrose agar, 37° C., 20 hours; read-out: "In vitro" MIC
Description: as §1
Serratia marcescens ATTC 13880
as §2, §3, §4, §5

[2] = test system: Bacillus subtilis ATCC 6633; test: "In vitro" MIC, Bacillus subtilis; type: cell-based; conditions: ATCC6633; Bacillus subtilis ATCC 6633; dextrose agar, 37° C., 20 hours; read-out: "In vitro" MIC
Description: as §1
Bacillus subtilis ATCC 6633
as §2, §3, §4, §5

[3] = test system: Streptococcus faecalis ATCC 10541; test: "In vitro" MIC, Streptococcus faecalis; type: cell-based; conditions: Enterococcus faecalis, ATCC10541; Streptococcus faecalis ATCC 10541; dextrose agar, 37° C., 20 hours; read-out: "In vitro" MIC
Description: as §1
Streptococcus faecalis ATCC 10541
as §2, §3, §4, §5

Acute toxicity to mice = conditions: mouse, in vivo, ip, suspension in 5% gum arabic, mortality over 7 days
Description: The experimental animals used to determine this toxicity were albino mice of the C.F.L.P. strain and of both sexes, weighing between 19 and 25 grams. After an 18-hour fasting period with water "ad libitum", the derivatives forming the subject of the present invention are administered intraperitoneally as a suspension in 5% gum arabic. The volume of suspension administered was 0.4 ml/20 grams (20 ml/kg) in all cases, the concentration of the suspension being changed according to the dose administered.
One hour after administration of the derivatives, the animals are given a standard Panlab rat-mouse food. The mortality was observed over a period of 7 days. Differences in mortality between the sexes were not observed with any of the products.

[4] = test system: Micrococcus flavus ATCC 10240; test: "In vitro" MIC, Micrococcus flavus; type: cell-based; conditions: ATCC10240; Micrococcus flavus ATCC 10240; dextrose agar, 37° C., 20 hours; read-out: "In vitro" MIC
Description: as §1
Micrococcus flavus ATTC 10240
as §2, §3, §4, §5

[5] = test system: Klebsiella pneumoniae ATCC 10031; test: "In vitro" MIC, Klebsiella pneumoniae; type: cell-based; conditions: ATCC10031; Klebsiella pneumoniae ATCC 10031; dextrose agar, 37° C., 20 hours; read-out: "In vitro" MIC
Description: as §1
Klebsiella pneumoniae ATCC 10031
as §2, §3, §4, §5

Gram-positive cocci = test: "In vitro" antimicrobial activity compared with nalidixic acid, Gram-positive cocci; type: cell-based
Description: as §1, §2, §3, §4, §5

[6] = test system: Pseudomonas aeruginosa 25115; test: "In vitro" MIC, Pseudomonas aeruginosa 25115; type: cell-based; conditions: Pseudomonas aeruginosa 25115; dextrose agar, 37° C., 20 hours; read-out: "In vitro" MIC
Description: as §1
Pseudomonas aeruginosa 25115
as §2, §3, §4, §5

[7] = test system: Enterobacteriaceae (Pseudomonas aeruginosa); test: "In vitro" antimicrobial activity compared with nalidixic acid, Enterobacteriaceae (Pseudomonas aeruginosa); type: cell-based
Description: as §1, §2, §3, §4, §5

[8] = test system: Escherichia coli ATCC 10536; test: "In vitro" MIC, Escherichia coli ATCC 10536; type: cell-based; conditions: ATCC10536; Escherichia coli ATCC 10536; dextrose agar, 37° C., 20 hours; read-out: "In vitro" MIC
Description: as §1
Escherichia coli ATCC 10536
as §2, §3, §4, §5

[9] = test system: Pseudomonas aeruginosa ADSA 47; test: "In vitro" MIC, Pseudomonas aeruginosa ADSA 47; type: cell-based; conditions: ADSA47; Pseudomonas aeruginosa ADSA 47; dextrose agar, 37° C., 20 hours; read-out: "In vitro" MIC
Description: as §1
Pseudomonas aeruginosa ADSA 47
as §2, §3, §4, §5

[10] = test system: Enterobacter aerogenes ATCC 15038; test: "In vitro" MIC, Enterobacter aerogenes; type: cell-based; conditions: Klebsiella aerogenes, ATCC15038; Enterobacter aerogenes ATCC 15038; dextrose agar, 37° C., 20 hours; read-out: "In vitro" MIC
Description: as §1
Enterobacter aerogenes ATCC 15038
as §2, §3, §4, §5

[11] = test system: Salmonella typhimurium AMES 100; test: "In vitro" MIC, Salmonella typhimurium AMES 100; type: cell-based; conditions: Salmonella enterica; Salmonella typhimurium AMES 100; dextrose agar, 37° C., 20 hours; read-out: "In vitro" MIC
Description: as §1
Salmonella typhimurium AMES 100
as §2, §3, §4, §5

[12] = test system: Enterobacter cloacae CHSP-20; test: "In vitro" MIC, Enterobacter cloacae; type: cell-based; conditions: CHSP20; Enterobacter cloacae CHSP-20; dextrose agar, 37° C., 20 hours; read-out: "In vitro" MIC
Description: as §1
Enterobacter cloacae CHSP-20
as §2, §3, §4, §5

[13] = test system: Proteus mirabilis ATCC 4675; test: "In vitro" MIC, Proteus mirabilis; type: cell-based; conditions: ATCC4675; Proteus mirabilis ATCC 4675; dextrose agar, 37° C., 20 hours; read-out: "In vitro" MIC
Description: as §1
Proteus mirabilis ATCC 4675
as §2, §3, §4, §5

[14] = test system: Salmonella typhimurium AMES 98; test: "In vitro" MIC, Salmonella typhimurium AMES 98; type: cell-based; conditions: Salmonella enterica; Salmonella typhimurium AMES 98; dextrose agar, 37° C., 20 hours; read-out: "In vitro" MIC
Description: as §1
Salmonella typhimurium AMES 98
as §2, §3, §4, §5

[15] = test system: Staphylococcus aureus ATCC 25178; test: "In vitro" MIC, Staphylococcus aureus ATCC 25178; type: cell-based; conditions: ATCC25178; Staphylococcus aureus ATCC 25178; dextrose agar, 37° C., 20 hours; read-out: "In vitro" MIC
Description: as §1
Staphylococcus aureus ATCC 25178
as §2, §3, §4, §5

[16] = test system: Staphylococcus aureus ATCC 5488/23; test: "In vitro" MIC, Staphylococcus aureus ATCC 5488/23; type: cell-based; conditions: ATCC5488; Staphylococcus aureus ATCC 5488/23; dextrose agar, 37° C., 20 hours; read-out: "In vitro" MIC
Description: as §1
Staphylococcus aureus ATCC 5488/23
as §2, §3, §4, §5

Sarcina lutea ATCC 9341 = test: "In vitro" MIC, Sarcina lutea; type: cell-based; conditions: Micrococcus luteus, ATCC9341; Sarcina lutea ATCC 9341; dextrose agar, 37° C., 20 hours; read-out: "In vitro" MIC
Description: as §1, §2, §3, §4, §5

[17] = test system: Citrobacter freundii ATCC 11606; test: "In vitro" MIC, Citrobacter freundii; type: cell-based; conditions: ATCC11606; Citrobacter freundii ATCC 11606; dextrose agar, 37° C., 20 hours; read-out: "In vitro" MIC
Description: as §1
Citrobacter freundii ATCC 11606
as §2, §3, §4, §5

Shigella flexnerii = test: "In vitro" MIC, Shigella flexnerii; type: cell-based; conditions: 20 h, read-out: "In vitro" MIC
Description: as §1, §2, §3, §4, §5

Proteus morganii CHSP-16 = test: "In vitro" MIC, Proteus morganii; type: cell-based; conditions: Morganella morganii, CHSP16; Proteus morganii CHSP-16; dextrose agar, 37° C., 20 hours; read-out: "In vitro" MIC
Description: as §1, §2, §3, §4, §5

For O=C(O)c1cn(CCF)c2cc(-n3cccc3)c(F)cc2c1=O [Example 6, 6-fluoro-7-(pyrrol-1-yl)-1-fluoroethyl-4-oxo-1,4-dihydroquinoline-3-carboxylate acid], the MIC (Escherichia coli R-1513) was 0.5 µg/mL (≈ 1.57 µM), the MIC [1] was 1 µg/mL (≈ 3.14 µM) and the MIC [2] was no more than 0.031 µg/mL. The MIC [3] was 0.5 µg/mL (≈ 1.57 µM), the LD50 at 168 h (Acute toxicity to mice) was greater than 1600 mg/kg and the MIC [4] was 1 µg/mL (≈ 3.14 µM). For the same compound, the MIC [5] was 0.062 µg/mL (≈ 0.195 µM), the “"in vitro" activity compared with nalidixic acid” value (Gram-positive cocci) was “greater "in vitro" activity than nalidixic acid” and the MIC [6] was 4 µg/mL (≈ 12.6 µM). The “"in vitro" activity compared with nalidixic acid” value [7] was “greater "in vitro" activity than nalidixic acid”, the MIC [8] was no more than 0.031 µg/mL and the MIC [9] was 16 µg/mL (≈ 50.3 µM). For the same compound, the MIC [10] was 1 µg/mL (≈ 3.14 µM), the MIC [11] was 0.25 µg/mL (≈ 0.785 µM) and the MIC [12] was 0.5 µg/mL (≈ 1.57 µM). For the same compound, the MIC [13] was 1 µg/mL (≈ 3.14 µM), the MIC [14] was no more than 0.031 µg/mL and the MIC [15] was 0.062 µg/mL (≈ 0.195 µM). It also gave an MIC [16] of 0.062 µg/mL (≈ 0.195 µM), an MIC (Sarcina lutea ATCC 9341) of 2 µg/mL (≈ 6.28 µM) and an MIC [17] of 1 µg/mL (≈ 3.14 µM). It also gave an MIC (Shigella flexnerii) of 1 µg/mL (≈ 3.14 µM) and an MIC (Proteus morganii CHSP-16) of 0.5 µg/mL (≈ 1.57 µM).
